Results from US9643946B2, “Tricyclic compound and use thereof” (SK CHEMICALS CO., LTD., priority 2013, dated 2017).

Legend:
[1] = target: human GPR40 protein (Homo sapiens, UniProt O14842); experiment: GPR40 agonist binding inhibition (displacement of 3H-labeled propanoic acid radioligand); conditions: membrane protein including human GPR40, 3H-labeled propanoic acid radioligand, 25° C., 2 hours; read-out: Half maximal inhibitory concentration
Procedure: Measurement of 50% Inhibitory Concentration (ID50) for GPR40 Agonist Binding
To examine the efficacy of the compounds according to one exemplary embodiment of the present invention in modulating GPR40, the half maximal inhibitory concentrations (IC50) of the compounds according to one exemplary embodiment of the present invention were measured by Microbeta2™ (PerkinElmer Inc.) using a change in radiation dose emitted from ^3H-labeled propanoic acid (i.e., 3-(4-((2,6′-dimethyl-6-((4-(^3H))-phenylmethoxy)biphenyl-3-yl)methoxy)phenyl)propanoic acid), which is a radioactive isotope which binds to a human GPR40 protein, as an indicator.
Specifically, a test compound was prepared by serial dilution with DMSO, and 100 μL of a binding buffer (including 25 mM HEPES (pH 7.5), 5 mM MgCl2, 100 mM NaCl, and 0.1% free fatty acid BSA; Sigma-Aldrich Corp.) was put into each well of a 96-well transparent plate. Thereafter, each of the diluted compound, propanoic acid which was prepared by dissolving propanoic acid in DMSO to a concentration of 500 mM and not labeled with a radioactive isotope, and DMSO was dispensed at 5 μL per well. ^3H-labeled propanoic acid was dissolved in a binding buffer at a concentration of 1 nM and dispensed at 50 μL into the corresponding wells, and a membrane protein including a human GPR40 protein was dissolved in a binding buffer at a concentration of 20 μg/well and dispensed at 100 μL, into the corresponding wells.
After the dispensation was completed, the plate was incubated at a temperature of 25° C. and a rotary speed of 230 rpm for 2 hours while shaking. A human GPR40 complex was transferred to Filtermat A (PerkinElmer Inc.) using a cell harvester (PerkinElmer Inc.), washed 10 times with 50 mM tris-HCl, dried, and then scintillated using Meltilex (PerkinElmer Inc.). Thereafter, an emitted radiation dose was measured using Microbeta2™. The radiation doses emitted from the complex in the well containing 10 mM unlabeled propanoic acid and the complex in the well containing DMSO alone were set as 0% and 100%, respectively. Thus, a change curve for each of the radiation doses was plotted to calculate the half maximal inhibitory concentration of the test compound.

[2] = test system: male ZFDM rats; experiment: Hypoglycemic rate after oral glucose loading in rats; assay type: in vivo, rat; conditions: oral 0.1 to 30 mg/kg one hour before glucose loading (1.5 g/kg), blood glucose AUC 0 to 120 minutes versus control
Procedure: Measurement of Hypoglycemic Rate in Rats
An effect of the compound according to one exemplary embodiment of the present invention on blood glucose inhibition after glucose loading was examined in male ZFDM rats (Japan SLC, Inc.).
Specifically, male ZFDM rats (7 week-old) pre-fed for a week were fasted overnight, and used as an animal to be tested. A test compound was prepared into a 0.5% methylcellulose suspension, which was orally administered to rats at a dose of 0.1 to 30 mg/kg before an hour of glucose loading (1.5 g/kg). As the control, 0.5% methylcellulose was administered. After the glucose administration, blood was drawn from the rats' tails after 0, 15, 30, 60 and 120 minutes to measure a blood glucose level. The area under the curve (AUC) for compound treatment was calculated using a blood glucose change profile from t=0 to 120 minutes, and a hypoglycemic rate (%) for the control was calculated.

human GPR40 protein, sequence (O14842 whole entry): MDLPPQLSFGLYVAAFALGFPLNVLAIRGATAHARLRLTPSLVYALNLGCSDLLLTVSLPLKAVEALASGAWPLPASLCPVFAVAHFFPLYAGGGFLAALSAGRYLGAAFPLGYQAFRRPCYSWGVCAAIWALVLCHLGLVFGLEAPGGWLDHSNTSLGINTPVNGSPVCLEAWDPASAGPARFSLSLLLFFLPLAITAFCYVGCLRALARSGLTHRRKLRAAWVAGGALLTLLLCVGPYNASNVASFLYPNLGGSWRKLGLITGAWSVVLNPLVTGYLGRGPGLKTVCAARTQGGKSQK

Row | SMILES | IC50 [1] [µM] | Hypoglycemic rate [2] [%]
1 | CS(=O)(=O)CCCOc1ccc2c(c1)CCCc1ccc(CNc3ccc([C@H]4C[C@@H]4C(=O)O)cc3)cc1-2 [Example 6, (1S,2S)-2-(4-(((9-(3-(methylsulfonyl)propoxy)-6,7-dihydro-5H-dibenzo[a,c][7]annulen-2-yl)methyl)amino)phenyl)cyclopropanecarboxylic acid] | 0.116 | 18.0
2 | CCS(=O)(=O)CCCOc1cc(C)c2c(c1)CCCc1ccc(COc3ccc4c(c3)OC[C@H]4CC(=O)O)cc1-2 [Example 57, 2-((3S)-6-((9-(3-(ethylsulfonyl)propoxy)-11-methyl-6,7-dihydro-5H-dibenzo[a,c][7]annulen-2-yl)methoxy)-2,3-dihydrobenzofuran-3-yl)acetic acid] |  | 21.7
